Assay: Phenytoin dissolution control
Format: physicochemical
Protocol: Probucol and phenytoin concentrations were quantified using a Agilent 1260 Infinity Quaternary HPLC equipped. The HPLC consisted of a reversed-phase EC-C18 column (Poroshell 120, 4.6×50 mm, 2.7 μm, Agilent, USA). The mobile phase was acetonitrile:water 96:4 for probucol and acetonitrile:water 40:60 for phenytoin, and the flow rate was 1.0 mL/min. A 10 μL aliquot of sample was injected, and the column effluent was detected at 241 nm for probucol (eluted at 2.90 min) and 225 nm for phenytoin (eluted at 1.40 min) with a UV detector (1260 Infinity Multiple Wavelength Detector, Agilent). The standard curve linearity was verified from 0.1 to 1000 μg/mL with an r^2 value of at least 0.999.

## O=C1NC(=O)C(c2ccccc2)(c2ccccc2)N1 [Phenytoin, phenytoin]
Time (s) 0
  Concentration: 0 ng/mL
Time (s) 4
  Concentration: 38000 ng/mL
Time (s) 10
  Concentration: 46000 ng/mL
Time (s) 20
  Concentration: 45000 ng/mL
Time (s) 40
  Concentration: 48000 ng/mL
Time (s) 90
  Concentration: 51000 ng/mL
Time (s) 180
  Concentration: 45000 ng/mL
Time (s) 360
  Concentration: 48000 ng/mL

Reference: US10030089B2, “Sugar free, statistical copolymers made from at least three monomers” (REGENTS OF THE UNIVERSITY OF MINNESOTA, priority 2013, dated 2018)
